In patent US20240050577A1, “CDK INHIBITORS AND PHARMACEUTICAL USES THEREOF” (RISEN (SUZHOU) PHARMA TECH CO., LTD., priority 2022, published 2024):

How the values were obtained:
Assay type in all cases: cell-based
CDK6 protein = biological target: T1, CDK6 protein (Homo sapiens, UniProt Q00534); test: CDK6 protein degradation in OVCAR3 cells (Western blot); conditions: 24 h; for DC50: read-out: DC50 CDK6 (half-maximum degradation concentration); for percent CDK6 protein degradation at 0.05 µM: OVCAR-3, 50 nM test compound, read-out: level of CDK6 protein degradation
T1 construct: host or cells: OVCAR3
Procedure: (§1) OVCAR3 (Cobioer, CBP60294) cell line of exponential growth phase was inoculated on a 6-well cell culture plate (Corning, 3516) according to 3E5/well scheme; and the plate was incubated overnight in a 5%-carbon dioxide incubator at 37° C. The next day, the test compound was dissolved in DMSO (Sigma, RNBF5902) to prepare a 10-mM concentration stock solution. The stock solution was diluted with complete medium, giving working solutions of different concentrations. Working solution was added into the corresponding wells of the orifice plate. The plate was placed in a 5% carbon dioxide incubator, set at 37° C., and incubated for 24 h. The plate was removed from the incubator, and the cells were washed twice with precooled PBS (Gibco, 14190250), followed by addition of 40 μL RIPA lysis buffer (containing protease inhibitor (Invitrogen™, AM2696)) to each well. Adherent cells were scraped off with a cell scraper, and the cell lysate was transferred to a 1.5 mL centrifuge tube, and the tube was placed on ice for 30 minutes. After completion of cell lysis, the tube was centrifugated for 10 min at 4° C., 14000 rpm. The supernatant was transferred into a new 1.5-mL centrifuge tube, and the new tube was placed on ice, followed by measurement of the protein concentration with BCA protein detection kit (Thermo Fisher, 23225). A mixture of cell lysate (40 μL) and loading buffer (10 μL, 5×SDS (Beyotime, P0015L)) was placed into a water bath at 95° C. for 10 min to denature the protein. The denatured protein sample, 30 μL/well, was added into a corresponding well of 4-20% Bis-Tris gel (Kingsley, M00657). The initial voltage was adjusted to 80-V and run for 30 min, followed by voltage increased to 120 V, and run for another 40 min, until the strip had run to the appropriate position. After electrophoresis, iBlot2 (Life Technologies, IB21001) was used to transfer the film under the condition of 20 V and 7 min. At the end of film transfer, 5% skimmed milk powder was sealed at room temperature for 2 h, and then TBST (Thermo Scientific, 28360) buffer solution was used to rinse for three times, 10 minutes each time. Skimmed milk powder (5%) was diluted with the first antibody in the appropriate proportion, and the working solution of the first antibody was prepared and incubated overnight at 4° C. After the incubation of the first antibody, the membrane was washed three times at room temperature with TBST buffer solution, 10 minutes each time; and the second antibody was incubated with 5% skimmed milk powder at room temperature for 1 h. After washing the film for three times with TBST, ECL color developing solution (Thermofisher 34095) was added, and an image was taken on a Biorad Chemi Doc gel imager. The band gray value was analyzed (Image Lab).
(§2) Symbols of “−”, “+”, “++”, and “+++” indicate that the degradation level of CDK protein induced by test compound was 10% or less, 11 to 30%, 31 to 60%, and greater than 60%, respectively.
(§3) Half-maximum degradation concentrations (DC50s) of test compounds were calculated using GraphPad Prism and their values are shown in Table 4. Symbols of “++++”, “+++”, “++”, “+” and “−” represent DC50s equal or less than 10 nM, 11-50 nM, 51-100 nM, 101-200 nM, and >200 nM, respectively.

CDK4 protein = biological target: T2, CDK4 protein (Homo sapiens, UniProt P11802); test: CDK4 protein degradation in OVCAR3 cells (Western blot); conditions: 24 h; for DC50: read-out: DC50 CDK4 (half-maximum degradation concentration); for percent CDK4 protein degradation at 0.05 µM: OVCAR-3, 50 nM test compound, read-out: level of CDK4 protein degradation
T2 construct: host or cells: OVCAR3
Procedure: as §1, §2, §3

OVCAR3 cells = test: Cell proliferation study (Cell Titer Glo, 72 h); conditions: Homo sapiens, OVCAR-3, luminescence, read-out: IC50, inhibitory effect on cellular proliferation
Procedure: OVCAR3 (Cobioer, CBP60294) cell line in logarithmic growth phase was used for these experiments. The cell density was adjusted to 1.1×10^4/mL and the cells were inoculated into a 96-well cell culture plate (Corning, 3599), 95 μL per well (the number of cells per well was 1×10^3). The culture plate was placed in an incubator, with 5% carbon dioxide, at 37° C. and incubated overnight. On the next day, a 10 mM stock solution of test compound was prepared in DMSO (Sigma, RNBF5902). After gradient dilution, a series of working solutions with different concentrations of test compound was prepared using complete medium. Working solution was added into the corresponding wells of the orifice plate, and the plate was placed in a 5% carbon dioxide incubator and cultivated at 37° C. for 72 h, and then removed from the incubator. To each well was added 50 μL Cell Tier Glo (Promega, G7573), and the plate was incubated at room temperature for 10 min, followed by luminescence detection with an enzyme marker. The inhibition curve was obtained with GraphPad 7.0 software using four-parameter equation.

CDK1 protein = biological target: T3, CDK1 protein (Homo sapiens, UniProt P06493); test: CDK1 protein degradation in OVCAR3 cells (Western blot); conditions: 24 h; for DC50: read-out: DC50 CDK1 (half-maximum degradation concentration); for percent CDK1 protein degradation at 0.05 µM: OVCAR-3, 50 nM test compound, read-out: level of CDK1 protein degradation
T3 construct: host or cells: OVCAR3
Procedure: as §1, §2, §3

CDK2 protein = biological target: T4, CDK2 protein (Homo sapiens, UniProt P24941); test: CDK2 protein degradation in OVCAR3 cells (Western blot); conditions: 24 h; for level of CDK2 protein degradation: 50 nM test compound; for DC50: read-out: DC50 CDK2 (half-maximum degradation concentration)
T4 construct: host or cells: OVCAR3
Procedure: as §1, §2, §3

T1 sequence (Q00534 whole entry): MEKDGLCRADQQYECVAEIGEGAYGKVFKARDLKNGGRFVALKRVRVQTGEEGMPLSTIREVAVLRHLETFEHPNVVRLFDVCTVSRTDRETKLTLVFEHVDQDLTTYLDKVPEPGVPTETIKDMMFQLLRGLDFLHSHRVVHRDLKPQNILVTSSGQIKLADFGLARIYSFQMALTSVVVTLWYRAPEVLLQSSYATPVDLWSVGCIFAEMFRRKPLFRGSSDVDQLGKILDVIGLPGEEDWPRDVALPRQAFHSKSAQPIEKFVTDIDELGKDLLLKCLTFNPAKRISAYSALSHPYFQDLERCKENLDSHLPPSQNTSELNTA
T2 sequence (P11802 whole entry): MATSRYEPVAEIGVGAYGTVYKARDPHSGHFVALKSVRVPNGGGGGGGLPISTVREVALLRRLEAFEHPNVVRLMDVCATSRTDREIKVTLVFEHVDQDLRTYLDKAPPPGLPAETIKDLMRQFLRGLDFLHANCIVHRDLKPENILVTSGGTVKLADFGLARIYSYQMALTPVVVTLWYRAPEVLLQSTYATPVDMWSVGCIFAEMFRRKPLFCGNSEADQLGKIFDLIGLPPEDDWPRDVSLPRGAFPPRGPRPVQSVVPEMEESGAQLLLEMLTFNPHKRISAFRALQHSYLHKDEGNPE
T3 sequence (P06493 whole entry): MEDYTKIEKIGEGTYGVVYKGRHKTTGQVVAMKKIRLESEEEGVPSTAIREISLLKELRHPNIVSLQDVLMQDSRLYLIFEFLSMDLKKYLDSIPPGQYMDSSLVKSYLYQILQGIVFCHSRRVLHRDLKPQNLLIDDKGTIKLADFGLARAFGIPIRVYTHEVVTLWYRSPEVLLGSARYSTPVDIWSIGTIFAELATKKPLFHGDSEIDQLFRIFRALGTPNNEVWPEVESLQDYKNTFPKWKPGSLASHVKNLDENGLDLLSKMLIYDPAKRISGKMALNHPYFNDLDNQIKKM

Cc1nc2c(F)cc(-c3nc(NC4CCN(S(=O)(=O)C5CCN(CC6CC7(C6)CN(c6cc8c(cc6F)C(=O)N(C6CCC(=O)NC6=O)C8=O)C7)CC5)CC4)ncc3F)cc2n1C(C)C (stereo not drawn) [Compound 88]
DC50 (CDK6 protein): > 200 nM | percent CDK6 protein degradation at 0.05 µM (CDK6 protein): > 60% | DC50 (CDK4 protein): > 200 nM | percent CDK4 protein degradation at 0.05 µM (CDK4 protein): ≤ 10% | IC50 (OVCAR3 cells): < 100 nM | DC50 (CDK1 protein): 11 to 50 nM | percent CDK1 protein degradation at 0.05 µM (CDK1 protein): 31 to 60% | level of CDK2 protein degradation (CDK2 protein): +++ (greater than 60%) | DC50 (CDK2 protein): 101 to 200 nM

C[C@@]1(O)CCC[C@H]1n1c(=O)ccc2cnc(NC3CCN(S(=O)(=O)C4CCN(C5CC6(CCN(c7cc8c(cc7F)C(=O)N(C7CCC(=O)NC7=O)C8=O)CC6)C5)CC4)CC3)nc21 (stereo partly drawn) [Compound 94]
DC50 (CDK6 protein): > 200 nM | percent CDK6 protein degradation at 0.05 µM (CDK6 protein): > 60% | DC50 (CDK4 protein): > 200 nM | percent CDK4 protein degradation at 0.05 µM (CDK4 protein): 11 to 30% | IC50 (OVCAR3 cells): 1000 to 5000 nM | DC50 (CDK1 protein): < 10 nM | percent CDK1 protein degradation at 0.05 µM (CDK1 protein): > 60% | level of CDK2 protein degradation (CDK2 protein): +++ (greater than 60%) | DC50 (CDK2 protein): < 10 nM

C[C@@]1(O)CCC[C@H]1n1c(=O)ccc2cnc(NC3CCN(S(=O)(=O)C4CCN(CC5CCN(C6CN(c7cc8c(cc7F)C(=O)N(C7CCC(=O)NC7=O)C8=O)C6)CC5)CC4)CC3)nc21 (stereo partly drawn) [Compound 95]
DC50 (CDK6 protein): < 10 nM | percent CDK6 protein degradation at 0.05 µM (CDK6 protein): > 60% | DC50 (CDK4 protein): > 200 nM | percent CDK4 protein degradation at 0.05 µM (CDK4 protein): 31 to 60% | IC50 (OVCAR3 cells): 101 to 1000 nM | DC50 (CDK1 protein): 11 to 50 nM | percent CDK1 protein degradation at 0.05 µM (CDK1 protein): > 60% | level of CDK2 protein degradation (CDK2 protein): ++ (31 to 60%) | DC50 (CDK2 protein): 51 to 100 nM

Cc1nc2c(F)cc(-c3nc(Nc4ccc(S(=O)(=O)C5CCN(C6CCN(C7CN(c8cc9c(cc8F)C(=O)N(C8CCC(=O)NC8=O)C9=O)C7)CC6)CC5)cc4)ncc3F)cc2n1C(C)C (stereo not drawn) [Compound 64]
DC50 (CDK6 protein): > 200 nM | percent CDK6 protein degradation at 0.05 µM (CDK6 protein): > 60% | DC50 (CDK4 protein): > 200 nM | percent CDK4 protein degradation at 0.05 µM (CDK4 protein): ≤ 10% | IC50 (OVCAR3 cells): < 100 nM | DC50 (CDK1 protein): > 200 nM | percent CDK1 protein degradation at 0.05 µM (CDK1 protein): > 60% | level of CDK2 protein degradation (CDK2 protein): +++ (greater than 60%) | DC50 (CDK2 protein): > 200 nM

Cc1nc2c(F)cc(-c3nc(NC4CCN(S(=O)(=O)C5CCN(C6CN(C7CCN(c8cc9c(cc8F)C(=O)N(C8CCC(=O)NC8=O)C9=O)CC7)C6)CC5)CC4)ncc3F)cc2n1C(C)C (stereo not drawn) [Compound 79]
DC50 (CDK6 protein): < 10 nM | percent CDK6 protein degradation at 0.05 µM (CDK6 protein): > 60% | DC50 (CDK4 protein): > 200 nM | percent CDK4 protein degradation at 0.05 µM (CDK4 protein): ≤ 10% | IC50 (OVCAR3 cells): < 100 nM | DC50 (CDK1 protein): < 10 nM | percent CDK1 protein degradation at 0.05 µM (CDK1 protein): > 60% | level of CDK2 protein degradation (CDK2 protein): +++ (greater than 60%) | DC50 (CDK2 protein): < 10 nM

C[C@@]1(O)CCC[C@H]1n1c(=O)c(C(F)F)cc2cnc(NC3CCN(S(=O)(=O)C4CCN(CC5CCN(C6CN(c7cc8c(cc7F)C(=O)N(C7CCC(=O)NC7=O)C8=O)C6)CC5)CC4)CC3)nc21 (stereo partly drawn) [Compound 37]
DC50 (CDK6 protein): > 200 nM | percent CDK6 protein degradation at 0.05 µM (CDK6 protein): > 60% | DC50 (CDK4 protein): > 200 nM | percent CDK4 protein degradation at 0.05 µM (CDK4 protein): ≤ 10% | IC50 (OVCAR3 cells): < 100 nM | DC50 (CDK1 protein): < 10 nM | percent CDK1 protein degradation at 0.05 µM (CDK1 protein): > 60% | level of CDK2 protein degradation (CDK2 protein): +++ (greater than 60%) | DC50 (CDK2 protein): < 10 nM

Cc1nc2c(F)cc(-c3nc(NC4CCN(S(=O)(=O)C5CCN(CC6CCN(C7CN(c8cc9c(cc8F)C(=O)N(C8CCC(=O)NC8=O)C9=O)C7)CC6)CC5)CC4)ncc3F)cc2n1C(C)C (stereo not drawn) [Compound 80]
DC50 (CDK6 protein): < 10 nM | percent CDK6 protein degradation at 0.05 µM (CDK6 protein): > 60% | DC50 (CDK4 protein): > 200 nM | percent CDK4 protein degradation at 0.05 µM (CDK4 protein): ≤ 10% | IC50 (OVCAR3 cells): < 100 nM | DC50 (CDK1 protein): > 200 nM | percent CDK1 protein degradation at 0.05 µM (CDK1 protein): ≤ 10% | level of CDK2 protein degradation (CDK2 protein): ++ (31 to 60%) | DC50 (CDK2 protein): > 200 nM

CC(C)N1CCOc2c(F)cc(-c3nc(Nc4ccc(S(=O)(=O)NCCOCc5cn(CCOCCOCCNc6cc7c(cc6F)C(=O)N(C6CCC(=O)NC6=O)C7=O)nn5)cc4)ncc3F)cc21 (stereo not drawn) [Compound 21, N-[2-[[1-[2-[2-[2-[[2-(2,6-dioxo-3-piperidyl)-6-fluoro-1,3-dioxo-isoindolin-5-yl]amino]ethoxy]ethoxy]ethyl]triazol-4-yl]methoxy]ethyl]-4-[[5-fluoro-4-(8-fluoro-4-isopropyl-2,3-dihydro-1,4-benzoxazin-6-yl)pyrimidin-2-yl]amino]benzenesulfonamide]
IC50 (OVCAR3 cells): 1000 to 5000 nM

Cc1nc2c(F)cc(-c3nc(Nc4ccc(S(=O)(=O)N5CCN(C6CCN(C7CN(c8cccc9c8C(=O)N(C8CCC(=O)NC8=O)C9=O)C7)CC6)CC5)cc4)ncc3F)cc2n1C(C)C (stereo not drawn) [Compound 56]
IC50 (OVCAR3 cells): 1000 to 5000 nM

CC(C)N1CCOc2c(F)cc(-c3nc(Nc4ccc(S(=O)(=O)NCCOCc5cn(CCOCCOCCNc6cccc7c6C(=O)N(C6CCC(=O)NC6=O)C7=O)nn5)cc4)ncc3F)cc21 (stereo not drawn) [Compound 20, N-[2-[[1-[2-[2-[2-[[2-(2,6-dioxo-3-piperidyl)-1,3-dioxo-isoindolin-4-yl]amino]ethoxy]ethoxy]ethyl]triazol-4-yl]methoxy]ethyl]-4-[[5-fluoro-4-(8-fluoro-4-isopropyl-2,3-dihydro-1,4-benzoxazin-6-yl)pyrimidin-2-yl]amino]benzenesulfonamide]
IC50 (OVCAR3 cells): > 10000 nM

CC(C)N1CCOc2c(F)cc(-c3nc(Nc4ccc(S(=O)(=O)N5CCC(NC(=O)C6CCN(c7cccc8c7C(=O)N(C7CCC(=O)NC7=O)C8=O)CC6)CC5)cc4)ncc3F)cc21 (stereo not drawn) [Compound 73]
IC50 (OVCAR3 cells): > 10000 nM

Cc1nc2c(F)cc(-c3nc(NC4CCN(S(=O)(=O)C5CCN(CC6CCC7(CC6)CN(c6cc8c(cc6F)C(=O)N(C6CCC(=O)NC6=O)C8=O)C7)CC5)CC4)ncc3F)cc2n1C(C)C (stereo not drawn) [Compound 97]
IC50 (OVCAR3 cells): 101 to 1000 nM

C[C@@]1(O)CCC[C@H]1n1c(=O)ccc2cnc(NC3CCN(S(=O)(=O)NCCOCc4cn(CCOCCOCCNc5cccc6c5C(=O)N(C5CCC(=O)NC5=O)C6=O)nn4)CC3)nc21 (stereo partly drawn) [Compound 91]
IC50 (OVCAR3 cells): 1000 to 5000 nM
